According to patent publication US20230271950A1, “ANTIBACTERIAL PICOLINAMIDE COMPOUNDS” (University of Notre Dame Du Lac, priority 2020, published 2023):
Like-named read-outs stand apart in the source and are kept apart here.

Tests used:
E. faecium NCTC7171 = experiment: MIC against E. faecium; type: cell-based, Enterococcus faecium; settings: Enterococcus faecium; E. faecium NCTC7171; Table 1; read-out: MIC
Bacteroides fragilis = experiment: MIC against gut bacterium Bacteroides fragilis; type: cell-based; settings: Bacteroides fragilis, Bacteroides fragilis strain HM-709, read-out: MIC
C. difficile = experiment: MIC by broth microdilution against C. difficile strains; type: cell-based, Clostridioides difficile

CCc1c(Cl)c(O)c(Cl)c(O)c1C(=O)O[C@H]1[C@H](O)[C@H](OC)[C@H](OC/C2=C\C=C\C[C@H](O)/C(C)=C/[C@H](CC)[C@@H](O[C@@H]3OC(C)(C)[C@@H](OC(=O)C(C)C)[C@H](O)[C@@H]3O)/C(C)=C/C(C)=C/C[C@@H]([C@@H](C)O)OC2=O)O[C@@H]1C [FDX, fidaxomicin, reference compound]
> 8 µg/mL: MIC (C. difficile; Clostridioides difficile, C. difficile 23828 (FR, fidaxomicin-resistant), Table 7, read-out: MIC) | MIC (C. difficile; Clostridioides difficile, C. difficile 23828, clinical isolate resistant to FDX, Table 1, read-out: MIC) | MIC (C. difficile; Clostridioides difficile, C. difficile 23828, Table 9, read-out: MIC) | MIC (C. difficile; Clostridioides difficile, C. difficile 27081 (FR, fidaxomicin-resistant), Table 7, read-out: MIC) | MIC (C. difficile; Clostridioides difficile, C. difficile 27081, Table 9, read-out: MIC)
4 µg/mL: MIC (C. difficile; Clostridioides difficile, C. difficile 23691 (VR, vancomycin-resistant), Table 7, read-out: MIC) | MIC (C. difficile; Clostridioides difficile, C. difficile 23691, clinical isolate resistant to VAN, Table 1, read-out: MIC) | MIC (C. difficile; Clostridioides difficile, C. difficile 23691, Table 9, read-out: MIC) | MIC (C. difficile; Clostridioides difficile, C. difficile 26675 (MR, metronidazole-resistant), Table 7, read-out: MIC) | MIC (C. difficile; Clostridioides difficile, C. difficile 26675, clinical isolate resistant to MTZ, Table 1, read-out: MIC) | MIC (C. difficile; Clostridioides difficile, C. difficile 26675, Table 9, read-out: MIC)
≤ 0.03 µg/mL: MIC (C. difficile; Clostridioides difficile, C. difficile HM-746, Table 9, read-out: MIC) | MIC (C. difficile; Clostridioides difficile, C. difficile NR-13428, Table 9, read-out: MIC) | MIC (C. difficile; Clostridioides difficile, C. difficile NR-13430, Table 9, read-out: MIC) | MIC (C. difficile; Clostridioides difficile, C. difficile NR-13435, Table 9, read-out: MIC)
< 0.25 µg/mL: MIC (C. difficile; Clostridioides difficile, BAA1804, C. difficile BAA-1804, Table 7, read-out: MIC)
128 fold: selectivity toward C. difficile relative to MRSA (C. difficile; C. difficile ATCC43255 relative to MRSA NRS70)
≤ 0.01 µg/mL: MIC (C. difficile; Clostridioides difficile, C. difficile NR49310, Table 7, read-out: MIC) | MIC (C. difficile; Clostridioides difficile, C. difficile NR49310, Table 9, read-out: MIC)
0.03 µg/mL: MIC (C. difficile; Clostridioides difficile, BAA1814, C. difficile BAA-1814, Table 7, read-out: MIC) | MIC (C. difficile; Clostridioides difficile, BAA1814, C. difficile BAA-1814, Table 9, read-out: MIC) | MIC (C. difficile; Clostridioides difficile, C. difficile HM-88, Table 9, read-out: MIC) | MIC (C. difficile; Clostridioides difficile, C. difficile HM-89, Table 9, read-out: MIC) | MIC (C. difficile; Clostridioides difficile, C. difficile NR49302, Table 7, read-out: MIC) | MIC (C. difficile; Clostridioides difficile, C. difficile NR49302, Table 9, read-out: MIC) | MIC (C. difficile; Clostridioides difficile, C. difficile NR-13427, Table 9, read-out: MIC)
> 32 µg/mL: MIC (Bacteroides fragilis; Table 1) | MIC (Bacteroides fragilis; Table 7)
0.5 µg/mL: MIC (C. difficile; Clostridioides difficile, C. difficile NR49292, Table 7, read-out: MIC) | MIC (C. difficile; Clostridioides difficile, C. difficile NR49292, Table 9, read-out: MIC)
0.125 µg/mL: MIC (C. difficile; C. difficile BAA-1801, Table 9) | MIC (C. difficile; C. difficile HM-745, Table 9) | MIC (C. difficile; C. difficile NR49318, Table 9) | MIC (C. difficile; C. difficile NR-13431, Table 9) | MIC (C. difficile; C. difficile NR-13433, Table 9) | MIC (C. difficile; C. difficile NR-13436, Table 9) | MIC (C. difficile; C. difficile NR-32883, Table 9) | MIC (C. difficile; C. difficile NR-32887, Table 9) | MIC (C. difficile; C. difficile NR-49280, Table 9) | MIC (C. difficile; C. difficile NR-49298, Table 9) | MIC (C. difficile; C. difficile NR-49299, Table 9) | MIC (C. difficile; C. difficile NR-49308, Table 9) | MIC (C. difficile; C. difficile NR-49312, Table 9) | MIC (C. difficile; C. difficile NR-49316, Table 9) | MIC (C. difficile; C. difficile NR-49319, Table 9) | MIC (C. difficile; C. difficile NR-49320, Table 9) | MIC (C. difficile; C. difficile NR-49321, Table 9) | MIC (C. difficile; Clostridioides difficile) | MIC (C. difficile; Clostridioides difficile, BAA1801) | MIC (C. difficile; Clostridioides difficile, BAA1804)
1 µg/mL: MIC (C. difficile; Clostridioides difficile, BAA1803, C. difficile BAA-1803, Table 7, read-out: MIC) | MIC (C. difficile; Clostridioides difficile, BAA1803, C. difficile BAA-1803, Table 9, read-out: MIC)
0.01 µg/mL: MIC (C. difficile; Clostridioides difficile, ATCC43598, C. difficile ATCC43598, Table 7, read-out: MIC) | MIC (C. difficile; Clostridioides difficile, ATCC43598, C. difficile ATCC43598, Table 9, read-out: MIC) | MIC (C. difficile; Clostridioides difficile, C. difficile 24531 (VR, vancomycin-resistant), Table 7, read-out: MIC) | MIC (C. difficile; Clostridioides difficile, C. difficile 24531, Table 9, read-out: MIC) | MIC (C. difficile; Clostridioides difficile, C. difficile 27173 (MR, metronidazole-resistant), Table 7, read-out: MIC) | MIC (C. difficile; Clostridioides difficile, C. difficile 27173, Table 9, read-out: MIC) | MIC (C. difficile; Clostridioides difficile, C. difficile NR49294, Table 7, read-out: MIC) | MIC (C. difficile; Clostridioides difficile, C. difficile NR49294, Table 9, read-out: MIC) | MIC (C. difficile; Clostridioides difficile, C. difficile NR49305, Table 7, read-out: MIC) | MIC (C. difficile; Clostridioides difficile, C. difficile NR49305, Table 9, read-out: MIC)
0.25 µg/mL: MIC (C. difficile; Clostridioides difficile, BAA1870, C. difficile BAA-1870 (NAP1, ribotype 27), Table 1, read-out: MIC) | MIC (C. difficile; Clostridioides difficile, BAA1870, C. difficile BAA-1870, Table 7, read-out: MIC) | MIC (C. difficile; Clostridioides difficile, BAA1870, C. difficile BAA-1870, Table 9, read-out: MIC) | MIC (C. difficile; Clostridioides difficile, C. difficile NR-13429, Table 9, read-out: MIC)
0.06 µg/mL: MIC (C. difficile; Clostridioides difficile, ATCC43255, C. difficile ATCC43255 (TcdA+, TcdB+), Table 1, read-out: MIC) | MIC (C. difficile; Clostridioides difficile, ATCC43255, C. difficile ATCC43255, Table 9, read-out: MIC) | MIC (C. difficile; Clostridioides difficile, C. difficile 24923, Table 9, read-out: MIC) | MIC (C. difficile; Clostridioides difficile, C. difficile HM-747, Table 9, read-out: MIC) | MIC (C. difficile; Clostridioides difficile, C. difficile NR-13434, Table 9, read-out: MIC)
0.0625 µg/mL: MIC (C. difficile; Clostridioides difficile, ATCC43255, C. difficile ATCC43255, Table 7, read-out: MIC) | MIC (C. difficile; Clostridioides difficile, C. difficile 24923 (VR, vancomycin-resistant), Table 7, read-out: MIC)
0.015 µg/mL: MIC (C. difficile; Clostridioides difficile, BAA1812, C. difficile BAA-1812, Table 7, read-out: MIC) | MIC (C. difficile; Clostridioides difficile, BAA1812, C. difficile BAA-1812, Table 9, read-out: MIC)
2 µg/mL: MIC (E. faecium NCTC7171)
